Experimental data from US20100099561A1, “HETEROBICYCLIC ALKYLTHIO-BRIDGED ISOXAZOLINES” (E.I. DU PONT DE NEMOURS AND COMPANY, priority 2008, published 2010).

What was measured:
Assay type in all cases: in vivo
[1] = test system: giant foxtail (Setaria faberi); assay: Test A preemergence, giant foxtail; settings: 0 to 100 scale (0 no effect, 100 complete control)
Summary of the method: (§1)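 Pre: directed soil spray after sowing in loam/sand. Post: seedlings at 1–2 leaf stage, 2–10 cm. Vehicle: non-phytotoxic solvent mix + surfactant. Greenhouse ~10 d; visual injury 0–100 vs untreated controls.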

[2] = test system: morningglory (Ipomoea spp.); assay: Test A preemergence, morningglory; settings: 0 to 100 scale (0 no effect, 100 complete control)
Summary of the method: as §1

[3] = test system: pigweed (Amaranthus retroflexus); assay: Test A preemergence, pigweed; settings: 0 to 100 scale (0 no effect, 100 complete control)
Summary of the method: as §1

[4] = test system: morningglory (Ipomoea spp.); assay: Test A postemergence, morningglory; settings: 0 to 100 scale (0 no effect, 100 complete control)
Summary of the method: as §1

[5] = test system: corn (Zea mays); assay: Test A postemergence, corn; settings: 0 to 100 scale (0 no effect, 100 complete control)
Summary of the method: as §1

[6] = test system: green foxtail (Setaria viridis); assay: Test B preemergence, green foxtail; settings: scale 0 to 100
Text: (§2) Seeds of plant species selected from blackgrass (Alopecurus myosuroides), downy bromegrass (Bromus tectorum), green foxtail (Setaria viridis), Italian ryegrass (Lolium multiflorum), wheat (Triticum aestivum), wild oat (Avena fatua), catchweed bedstraw (Galium aparine), bermudagrass (Cynodon dactylon), Surinam grass (Brachiaria decumbens), cocklebur (Xanthium strumarium), corn (Zea mays), large crabgrass (Digitaria sanguinalis), woolly cupgrass (Eriochloa villosa), giant foxtail (Setaria faberii), goosegrass (Eleusine indica), johnsongrass (Sorghum halepense), kochia (Kochia scoparia), lambsquarters (Chenopodium album), morningglory (Ipomoea coccinea), nightshade (eastern black nightshade, Solanum ptycanthum), yellow nutsedge (Cyperus esculentus), pigweed (Amaranthus retroflexus), ragweed (common ragweed, Ambrosia elatior), soybean (Glycine max), sunflower (common oilseed sunflower, Helianthus annuus), Russian thistle (Salsola kali), and velvetleaf (Abutilon theophrasti) were planted into a blend of loam soil and sand and treated preemergence with test compounds formulated in a non-phytotoxic solvent mixture which included a surfactant. Treated plants and controls were maintained in a greenhouse for 13 to 15 days, after which time all species were compared to controls and visually evaluated. Plant response ratings, summarized in Table B, are based on a scale of 0 to 100 where 0 is no effect and 100 is complete control. A dash (-) response means no test result.

[7] = test system: Italian ryegrass (Lolium multiflorum); assay: Test B preemergence, Italian ryegrass; settings: Preemergence, scale 0 to 100
Text: as §2

[8] = test system: wheat (Triticum aestivum); assay: Test B preemergence, wheat; settings: Preemergence, scale 0 to 100
Text: as §2

[9] = test system: wild oat (Avena fatua); assay: Test B preemergence, wild oat; settings: scale 0 to 100
Text: as §2

[10] = test system: bermudagrass (Cynodon dactylon); assay: Test B preemergence, bermudagrass; settings: scale 0 to 100
Text: as §2

[11] = test system: cocklebur (Xanthium strumarium); assay: Test B preemergence, cocklebur; settings: scale 0 to 100
Text: as §2

[12] = test system: woolly cupgrass (Eriochloa villosa); assay: Test B preemergence, woolly cupgrass; settings: scale 0 to 100
Text: as §2

[13] = test system: giant foxtail (Setaria faberii); assay: Test B preemergence, giant foxtail; settings: scale 0 to 100
Text: as §2

[14] = test system: goosegrass (Eleusine indica); assay: Test B preemergence, goosegrass; settings: scale 0 to 100
Text: as §2

[15] = test system: johnsongrass (Sorghum halepense); assay: Test B preemergence, johnsongrass; settings: scale 0 to 100
Text: as §2

[16] = test system: pigweed (Amaranthus retroflexus); assay: Test B preemergence, pigweed; settings: scale 0 to 100
Text: as §2

[17] = test system: umbrella sedge (Cyperus difformis); assay: Test B flooded paddy test, umbrella sedge; settings: Flood, scale 0 to 100
Summary of the method: (§3)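 Step one: raise plants to 2 leaves. Step two: flood pots 3 cm over the soil and apply compound into the water, keeping this depth. Step three: after 13–15 greenhouse days, score visually versus controls, 0–100, where 100 means complete control.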

[18] = test system: ducksalad (Heteranthera limosa); assay: Test B flooded paddy test, ducksalad; settings: Flood, scale 0 to 100
Summary of the method: as §3

[19] = test system: barnyardgrass (Echinochloa crus-galli); assay: Test B flooded paddy test, barnyardgrass; settings: Flood
Summary of the method: as §3

[20] = 250 g ai/ha, scale 0 to 100 (0 no effect, 100 complete control)

## CC1(C)CC(S(=O)(=O)Cc2c(C(F)(F)F)nc3n(c2=O)CCCC3)=NO1 [Compound 8, 3-[[(4,5-dihydro-5,5-dimethyl-3-isoxazolyl)sulfonyl]methyl]-6,7,8,9-tetrahydro-2-(trifluoromethyl)-4H-pyrido[1,2-α]pyrimidin-4-one]
[1]; 125 g ai/ha
  Plant response rating, Foxtail, Giant: 100
[1]; 500 g ai/ha
  Plant response rating, Foxtail, Giant: 100
[2]; 125 g ai/ha
  Plant response rating, Morningglory: 20
[2]; 500 g ai/ha
  Plant response rating, Morningglory: 90
[3]; 125 g ai/ha
  Plant response rating, Pigweed: 30
[3]; 500 g ai/ha
  Plant response rating, Pigweed: 100
[4]; 125 g ai/ha
  Plant response rating, Morningglory: 60
[4]; 500 g ai/ha
  Plant response rating, Morningglory: 90
[5]; 125 g ai/ha
  Plant response rating, Corn: 0
[5]; 500 g ai/ha
  Plant response rating, Corn: 60
[6]; 16 g ai/ha
  Plant response rating, Foxtail, Green: 70
[6]; 31 g ai/ha
  Plant response rating, Foxtail, Green: 85
[6]; 62 g ai/ha
  Plant response rating, Foxtail, Green: 98
[6]; 125 g ai/ha
  Plant response rating, Foxtail, Green: 98
[7]; 16 g ai/ha
  Plant response rating, Ryegrass, Italian: 0
[7]; 31 g ai/ha
  Plant response rating, Ryegrass, Italian: 30
[7]; 62 g ai/ha
  Plant response rating, Ryegrass, Italian: 35
[7]; 125 g ai/ha
  Plant response rating, Ryegrass, Italian: 100
[8]; 16 g ai/ha
  Plant response rating, Wheat: 0
[8]; 31 g ai/ha
  Plant response rating, Wheat: 0
[8]; 62 g ai/ha
  Plant response rating, Wheat: 0
[8]; 125 g ai/ha
  Plant response rating, Wheat: 40
[9]; 16 g ai/ha
  Plant response rating, Oat, Wild: 0
[9]; 31 g ai/ha
  Plant response rating, Oat, Wild: 0
[9]; 62 g ai/ha
  Plant response rating, Oat, Wild: 35
[9]; 125 g ai/ha
  Plant response rating, Oat, Wild: 90
[10]; 16 g ai/ha
  Plant response rating, Bermudagrass: 100
[10]; 31 g ai/ha
  Plant response rating, Bermudagrass: 100
[10]; 62 g ai/ha
  Plant response rating, Bermudagrass: 100
[10]; 125 g ai/ha
  Plant response rating, Bermudagrass: 100
[11]; 16 g ai/ha
  Plant response rating, Cocklebur: 0
[11]; 31 g ai/ha
  Plant response rating, Cocklebur: 0
[11]; 62 g ai/ha
  Plant response rating, Cocklebur: 0
[11]; 125 g ai/ha
  Plant response rating, Cocklebur: 0
[12]; 16 g ai/ha
  Plant response rating, Cupgrass, Woolly: 85
[12]; 31 g ai/ha
  Plant response rating, Cupgrass, Woolly: 95
[12]; 62 g ai/ha
  Plant response rating, Cupgrass, Woolly: 95
[12]; 125 g ai/ha
  Plant response rating, Cupgrass, Woolly: 100
[13]; 16 g ai/ha
  Plant response rating, Foxtail, Giant: 80
[13]; 31 g ai/ha
  Plant response rating, Foxtail, Giant: 90
[13]; 62 g ai/ha
  Plant response rating, Foxtail, Giant: 98
[13]; 125 g ai/ha
  Plant response rating, Foxtail, Giant: 100
[14]; 16 g ai/ha
  Plant response rating, Goosegrass: 98
[14]; 31 g ai/ha
  Plant response rating, Goosegrass: 98
[14]; 62 g ai/ha
  Plant response rating, Goosegrass: 100
[14]; 125 g ai/ha
  Plant response rating, Goosegrass: 100
[15]; 16 g ai/ha
  Plant response rating, Johnsongrass: 75
[15]; 31 g ai/ha
  Plant response rating, Johnsongrass: 90
[15]; 62 g ai/ha
  Plant response rating, Johnsongrass: 100
[15]; 125 g ai/ha
  Plant response rating, Johnsongrass: 100
[16]; 16 g ai/ha
  Plant response rating, Pigweed: 0
[16]; 31 g ai/ha
  Plant response rating, Pigweed: 20
[16]; 62 g ai/ha
  Plant response rating, Pigweed: 95
[16]; 125 g ai/ha
  Plant response rating, Pigweed: 100
[17]; 62 g ai/ha
  Plant response rating, Sedge, Umbrella: 0
[17]; 250 g ai/ha
  Plant response rating, Sedge, Umbrella: 20
[18]; 62 g ai/ha
  Plant response rating, Ducksalad: 0
[18]; 250 g ai/ha
  Plant response rating, Ducksalad: 20
[19]; 62 g ai/ha, scale 0 to 100
  Plant response rating, Barnyardgrass: 0
[19]; [20]
  Plant response rating, Barnyardgrass: 0

## CC1(C)CC(S(=O)(=O)Cc2c(C(F)(F)F)nc3n(c2=O)CCC3)=NO1 [Compound 11, 3-[[(4,5-dihydro-5,5-dimethyl-3-isoxazolyl)sulfonyl]methyl]-7,8-dihydro-2-(trifluoromethyl)pyrrolo[1,2-α]pyrimidin-4(6H)-one]
[1]; 125 g ai/ha
  Plant response rating, Foxtail, Giant: 90
[1]; 500 g ai/ha
  Plant response rating, Foxtail, Giant: 100
[2]; 125 g ai/ha
  Plant response rating, Morningglory: 30
[2]; 500 g ai/ha
  Plant response rating, Morningglory: 90
[3]; 125 g ai/ha
  Plant response rating, Pigweed: 30
[3]; 500 g ai/ha
  Plant response rating, Pigweed: 100
[4]; 125 g ai/ha
  Plant response rating, Morningglory: 10
[4]; 500 g ai/ha
  Plant response rating, Morningglory: 60
[5]; 125 g ai/ha
  Plant response rating, Corn: 20
[5]; 500 g ai/ha
  Plant response rating, Corn: 50
[6]; 16 g ai/ha
  Plant response rating, Foxtail, Green: 20
[6]; 31 g ai/ha
  Plant response rating, Foxtail, Green: 70
[6]; 62 g ai/ha
  Plant response rating, Foxtail, Green: 100
[6]; 125 g ai/ha
  Plant response rating, Foxtail, Green: 100
[7]; 16 g ai/ha
  Plant response rating, Ryegrass, Italian: 0
[7]; 31 g ai/ha
  Plant response rating, Ryegrass, Italian: 0
[7]; 62 g ai/ha
  Plant response rating, Ryegrass, Italian: 0
[7]; 125 g ai/ha
  Plant response rating, Ryegrass, Italian: 90
[8]; 16 g ai/ha
  Plant response rating, Wheat: 0
[8]; 31 g ai/ha
  Plant response rating, Wheat: 0
[8]; 62 g ai/ha
  Plant response rating, Wheat: 20
[8]; 125 g ai/ha
  Plant response rating, Wheat: 50
[9]; 16 g ai/ha
  Plant response rating, Oat, Wild: 0
[9]; 31 g ai/ha
  Plant response rating, Oat, Wild: 10
[9]; 62 g ai/ha
  Plant response rating, Oat, Wild: 20
[9]; 125 g ai/ha
  Plant response rating, Oat, Wild: 65
[10]; 16 g ai/ha
  Plant response rating, Bermudagrass: 65
[10]; 31 g ai/ha
  Plant response rating, Bermudagrass: 100
[10]; 62 g ai/ha
  Plant response rating, Bermudagrass: 100
[10]; 125 g ai/ha
  Plant response rating, Bermudagrass: 100
[11]; 16 g ai/ha
  Plant response rating, Cocklebur: 0
[11]; 31 g ai/ha
  Plant response rating, Cocklebur: 0
[11]; 62 g ai/ha
  Plant response rating, Cocklebur: 0
[11]; 125 g ai/ha
  Plant response rating, Cocklebur: 0
[12]; 16 g ai/ha
  Plant response rating, Cupgrass, Woolly: 85
[12]; 31 g ai/ha
  Plant response rating, Cupgrass, Woolly: 100
[12]; 62 g ai/ha
  Plant response rating, Cupgrass, Woolly: 100
[12]; 125 g ai/ha
  Plant response rating, Cupgrass, Woolly: 100
[13]; 16 g ai/ha
  Plant response rating, Foxtail, Giant: 0
[13]; 31 g ai/ha
  Plant response rating, Foxtail, Giant: 40
[13]; 62 g ai/ha
  Plant response rating, Foxtail, Giant: 95
[13]; 125 g ai/ha
  Plant response rating, Foxtail, Giant: 100
[14]; 16 g ai/ha
  Plant response rating, Goosegrass: 65
[14]; 31 g ai/ha
  Plant response rating, Goosegrass: 90
[14]; 62 g ai/ha
  Plant response rating, Goosegrass: 100
[14]; 125 g ai/ha
  Plant response rating, Goosegrass: 100
[15]; 16 g ai/ha
  Plant response rating, Johnsongrass: 0
[15]; 31 g ai/ha
  Plant response rating, Johnsongrass: 60
[15]; 62 g ai/ha
  Plant response rating, Johnsongrass: 65
[15]; 125 g ai/ha
  Plant response rating, Johnsongrass: 90
[16]; 16 g ai/ha
  Plant response rating, Pigweed: 0
[16]; 31 g ai/ha
  Plant response rating, Pigweed: 0
[16]; 62 g ai/ha
  Plant response rating, Pigweed: 100
[16]; 125 g ai/ha
  Plant response rating, Pigweed: 100
[17]; 31 g ai/ha
  Plant response rating, Sedge, Umbrella: 0
[17]; 62 g ai/ha
  Plant response rating, Sedge, Umbrella: 0
[17]; 125 g ai/ha
  Plant response rating, Sedge, Umbrella: 0
[17]; 250 g ai/ha
  Plant response rating, Sedge, Umbrella: 20
[18]; 31 g ai/ha
  Plant response rating, Ducksalad: 0
[18]; 62 g ai/ha
  Plant response rating, Ducksalad: 0
[18]; 125 g ai/ha
  Plant response rating, Ducksalad: 0
[18]; 250 g ai/ha
  Plant response rating, Ducksalad: 35
[19]; 31 g ai/ha, scale 0 to 100
  Plant response rating, Barnyardgrass: 0
[19]; 62 g ai/ha, scale 0 to 100
  Plant response rating, Barnyardgrass: 0
[19]; 125 g ai/ha, scale 0 to 100
  Plant response rating, Barnyardgrass: 0
[19]; [20]
  Plant response rating, Barnyardgrass: 20
